Structures can show the parent of a compound that is named as a salt. Where two headings read alike, the source gives them in different places.
Key:
[1] = test system: P. falciparum 3D7; assay: Inhibition of parasite growth in P. falciparum 3D7-infected red blood cells; assay type: cell-based, Plasmodium falciparum; settings: for 3D7 potency described in words (relative to comparator): comparator 4e unless 4-series (4a); for fold loss in 3D7 potency: R8 changes relative to parent analog (4a series); for fold reduction in 3D7 potency: relative to 4e (isopentyl R1); for IC50: Plasmodium falciparum, 3D7, Erythrocyte
[2] = test system: P. falciparum 3D7; settings: read-out: reported XC50; TCAMS screening dataset; cited from earlier work
[3] = HepG2 72 h cytotoxicity; settings: human, HepG2 cells
[4] = test system: HepG2 cells; assay: HepG2 72 h cytotoxicity; settings: HepG2 cytotoxicity vs antimalarial activity
[5] = Rat PK experiment in vivo; settings: iv, 1 mg/kg
[6] = test system: Plasmodium; settings: read-out: reported EC50; Novartis-GNF collection, GNF-Pf-5345; cited from earlier work

| Compound | 3D7 potency described in words (relative to comparator) [1] | also measured |
| --- | --- | --- |
| CCN1C(=O)N(CCC(C)C)C2(CCN(Cc3ccccc3O)CC2)C1=O [Compound 4d] | did not have a significant impact on potency |  |
| CCN1C(=O)N(CCc2ccccc2)C2(CCN(Cc3cc(Cl)ccc3O)CC2)C1=O [Compound 10f] | roughly equipotent |  |
| CCN1C(=O)N(CCC(C)C)C2(CCN(Cc3cccc(Cl)c3)CC2)C1=O [Compound 4f] |  | fold loss in 3D7 potency [1]: 8- to 60 fold |
| CC(C)CCN1C(=O)N(CCCc2ccncc2)C(=O)C12CCN(Cc1cc(Cl)ccc1O)CC2 [Compound 11d] | modest two-three-fold losses of potency |  |
| CC(C)CCN1C(=O)NC(=O)C12CCN(Cc1cc(Cl)ccc1O)CC2 [Compound 11a] | dramatic loss in activity |  |
| CC(C)CCN1C(=O)N(C(C)C)C(=O)C12CCN(Cc1cc(Cl)ccc1O)CC2 [Compound 11b] | improved potency three-fold |  |
| CCN1C(=O)N(CCC(C)C)C2(CCN(Cc3cc(Cl)cc(Cl)c3O)CC2)C1=O [Compound 12j] | equipotent |  |
| CCN1C(=O)N(CCC(C)C)C2(CCN(Cc3ccc(OC)cc3O)CC2)C1=O [Compound 4a] |  | IC50 [2]: 840 nM |
| CCN1C(=O)NC2(CCN(Cc3cc(Cl)ccc3O)CC2)C1=O [Compound 10a] |  | fold reduction in 3D7 potency [1]: ≥ 20 fold |
| CCN1C(=O)N(C2CCCC2)C2(CCN(Cc3cc(Cl)ccc3O)CC2)C1=O [Compound 10c] | well tolerated |  |
| CCN1C(=O)N(CCC(C)C)C2(CCN(Cc3c(O)cccc3Cl)CC2)C1=O [Compound 12g] | essentially equipotent |  |
| CCN1C(=O)N(CCC(C)C)C2(CCN(Cc3ccc(OC)cc3OC)CC2)C1=O [Compound 4g] |  | fold loss in 3D7 potency [1]: 8- to 60 fold |
| CCN1C(=O)N(CCC(C)C)C2(CCN(Cc3cc(Br)ccc3O)CC2)C1=O [Compound 12d] | well tolerated |  |
| CCN1C(=O)N(CCC(C)C)C2(CCN(Cc3cc(O)cc(Cl)c3)CC2)C1=O [Compound 12a] | increasingly detrimental to 3D7 potency |  |
| CCN1C(=O)N(Cc2ccc(C#N)cc2)C2(CCN(Cc3cc(Cl)ccc3O)CC2)C1=O [Compound 10h] | tolerated with some modest effects on potency |  |
| CCN1C(=O)N(CCC(C)C)C2(CCN(C(=O)c3cc(Cl)ccc3O)CC2)C1=O [Compound 12m] | lack of 3D7 potency |  |
| CCN1C(=O)N(CCC(C)C)C2(CCN(Cc3cccc4cc[nH]c34)CC2)C1=O [Compound 12u] | hint of potency |  |
| CCN1C(=O)N(CCC(C)C)C2(CCN(Cc3cccc(OC)c3O)CC2)C1=O [Compound 4b] |  | fold loss in 3D7 potency [1]: 6 fold |
| CCN1C(=O)N(Cc2ccccc2)C2(CCN(Cc3cc(Cl)ccc3O)CC2)C1=O [Compound 10e] | roughly equipotent |  |
| CCN1C(=O)N(Cc2ccc(OC)cc2)C2(CCN(Cc3cc(Cl)ccc3O)CC2)C1=O [Compound 10g] | tolerated with some modest effects on potency |  |
| CCN1C(=O)N(CCC(C)C)C2(CCN(Cc3cc(-c4ccccc4)ccc3O)CC2)C1=O [Compound 12f] |  | IC50 at 72 h [3]: > 50000 nM |
| CCN1C(=O)N(CCC(C)C)C2(CCN(Cc3cc(Cl)c(Cl)cc3O)CC2)C1=O [Compound 12k] |  | IC50 ([1]; read-out: IC50 in P. falciparum 3D7 infected erythrocytes, 3D7 (chloroquine-sensitive) strain): 99 nM; IC50 at 72 h [3]: > 50000 nM; selectivity index [4]: greater than 500 |
| CC(C)CCN1C(=O)N(Cc2cccnc2)C(=O)C12CCN(Cc1cc(Cl)ccc1O)CC2 [Compound 11c] | modest two-three-fold losses of potency |  |
| CCN1C(=O)N(CC)C2(CCN(Cc3cc(Cl)ccc3O)CC2)C1=O [Compound 10b] |  | fold reduction in 3D7 potency [1]: ≥ 20 fold |
| CCN1C(=O)N(c2ccccc2)C2(CCN(Cc3cc(Cl)ccc3O)CC2)C1=O [Compound 10d] | detrimental to potency |  |
| CCN1C(=O)N(CCC(C)C)C2(CCN(Cc3ccc(Cl)cc3O)CC2)C1=O [Compound 12h] | three- to seven-fold less potent | IC50 at 72 h [3]: > 50000 nM |
| CCN1C(=O)N(CCC(C)C)C2(CCN(Cc3cc(Cl)ccc3O)CC2)C1=O [Compound 4e, 8-(5-chloro-2-hydroxybenzyl)-3-ethyl-1-isopentyl-1,3,8-triazaspiro[4.5]decane-2,4-dione hydrochloride] | about a five-fold improvement in potency | IC50 ([1]; read-out: IC50 in P. falciparum 3D7 infected erythrocytes): 310 nM; clearance [5]: 152 mL/min/kg; EC50 [6]: 349 nM; selectivity index [4]: > 100 |

Source: article PMC4550221 (Bioorganic & medicinal chemistry, 2015)
